The source of these data is US20130142868A1 (priority 2010, published 2013).

Where two headings read alike, the source gives them in different places.

For data set [1] the following is noted: rat, in vivo.
The subject of data set [2] is rats. The conditions noted are these: rat, in vivo.
In data set [3] the test system is A549 human lung cancer cells. Kind of data set: Alamar Blue cell viability assay, A549. Type of data set: cell-based. The settings on record: 72 h, 3 days incubation. On the procedure: HUVEC, LLC-PK1, and A549 lung cancer cells were purchased from ATCC. LLC-PK1 cells were cultured in DMEM supplemented with 10% FBS and antibiotics (100 U/mL penicillin G and 0.1 mg/mL streptomycin). HUVEC cells were cultured in F12-K media supplemented with 100 ug/ml endothelial cell growth supplement (BD Biosciences, Franklin Lakes, N.J.), 10% FBS, and antibiotics. A549 human lung cancer cells were cultured in F12-K media with 10% FBS and antibiotics. All cells were grown at 37° C. in a 5% CO2/95% air humidified atmosphere.
Cell viability experiments were performed using the Alamar Blue dye reduction assay (Invitrogen, Carlsbad, Calif.). The experimental cell lines were plated at 1.0×10^4 cells/well in 96-well plates in recommended media and allowed to adhere overnight. The next day, cells were incubated with liposomes or free CCNU, with drug concentrations from 2.5 to 100 μM. Cells were also incubated with empty RGD-expressed and non-targeted liposomes. The control cells were only incubated in the recommended media. All experiments were performed in quadruplicate. Incubations were allowed to carry out for 3 days. […] Next, the wells were analyzed with a fluorescence plate reader with absorption and emission of 485/535 nm. All cell viability results are expressed as a percentage of viable cells compared to control cells.

The conditions of data set [4]: in vivo; cited from earlier work.

Take `Cc1c(O)cccc1C(=O)N[C@@H](CSc1ccccc1)[C@H](O)CN1C[C@H]2CCCC[C@H]2C[C@H]1C(=O)NC(C)(C)C` [nelfinavir]: in data set [1] (Sprague-Dawley, 30 min), the “blood concentration, nose drop administration relative to POD administration” value was 3.2 times higher; the “cortex concentration, increase POD compared to nose drops” value was determined as 4.05 fold; the “olfactory bulb concentration, increase POD compared to nose drops” value came to 1.91 fold. For the same compound, in data set [1] (30 min), the “blood normalized olfactory bulb concentration, POD compared to nose drops” value amounted to 3.6 fold; the “brain-to-blood ratio (average of all brain tissues), increase POD compared to nose drops” value was 2.1 fold; the “cortex concentration, increase POD compared to nose drops” value is given as 4.0 fold; the “olfactory bulb concentration, increase POD compared to nose drops” value is listed as 1.4 fold.

Regarding `CN1CC[C@]23c4c5ccc(O)c4O[C@H]2[C@@H](O)C=C[C@H]3[C@H]1C5` [morphine], in data set [2], the “DTP % after POD administration” value is on record as 38-55% and the “DTP % after nose drops, depending on the dose” value was 0-10%.

Usually IC50 stands for the concentration at which inhibition is half-maximal. With `O=NN(CCCl)C(=O)NC1CCCCC1` [Free Drug, 1-(2-chloroethyl)-3-cyclohexyl-1-nitroso-urea], the half-inhibitory concentration (IC50) in data set [3] (after aerosolization, read-out: IC50 values, post-aerosolization) turned out to be 70.5 ± 2.97 µM; in data set [3] (before aerosolization, read-out: IC50 values, pre-aerosolization), 68.7 ± 2.48 µM.

With `OC[C@@H](O)[C@@H](O)[C@H](O)[C@H](O)CO` [mannitol], in data set [4], the half life is 1.67 h. For the same compound, in data set [1] (Sprague-Dawley, 30 min), the “concentration at olfactory bulbs” value is listed as “about 2 nmol/g”; the “concentration in the brain's cortex, brain stem and spine” value is 0.2 to 0.4 nmol/g; the “cortex concentration, increase POD compared to IV” value was 8.69 fold; the “cortex concentration, increase POD compared to nose drops” value is 11.6 fold. For the same compound, in data set [1] (Sprague-Dawley, 30 min), the “olfactory bulb concentration, increase POD compared to IV” value is recorded as 53.1 fold and the “olfactory bulb concentration, increase POD compared to nose drops” value amounted to 25.6 fold. In addition, in data set [1] (Sprague-Dawley, 150 min), the “olfactory bulb concentration, increase POD compared to IV” value amounted to 40.0 fold and the “olfactory bulb concentration, increase POD compared to nose drops” value is 22.1 fold. For the same compound, the “concentration in the brain's cortex, brain stem and spine” value in data set [1] (Sprague-Dawley, iv, 30 min) is reported as “less than 0.02 nmol/g”. Also, in data set [1] (30 min), the “blood normalized olfactory bulb concentration, POD compared to nose drops” value was found to be 18.6 fold and the “brain-to-blood ratio (average of all brain tissues), increase POD compared to nose drops” value worked out at 3.4 fold.
